# Data taken from US20260201008A1, “SECRETIN-DERIVED GLP1R SELECTIVE AGONISTS” (GUBRA A/S, priority 2023, published 2026).
# Read-outs that look alike come from different tables or passages of the source. Numbered stars: 1 amine (or outer) side, 2 acyl side, 3 side chain; on linkers, the order of the positions; unused ones are H or OH. Square brackets hold non-standard residues; d marks the D form. Side chains are listed from the residue outwards. Peptide text beside a SMILES is read from it. * marks the point of attachment. C20 diacid = O=C(O)CCCCCCCCCCCCCCCCCCC(=O)*; γGlu = O=C(O)[C@H](CCC(=O)[*:2])N[*:1]; AEEA = NCCOCCOCC(=O)O; Aib = CC(C)(N)C(=O)O
# Columns and labels:
# [1] = Fibril formation of crude library peptides (Thioflavin T); assay type: physicochemical; set-up: key: average ThT fluorescence emission at 480 nm (ex 450 nm), raw units; details: Physical stability of peptides
# In short: (§1)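 Values reflect mean ThT emission (ex 450, em 480 nm) over 72 h at 40° C, read every 10 min after 5 min shaking at 700 rpm, plus a single initial absorbance at 600 nm for turbidity. Peptides were at 267 μM, pH 4.0 acetate or pH 7.0 phosphate (50 mM), with 4 μM ThT.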
# GLP1R = GLP1R (Homo sapiens, UniProt P43220); assay: hGLP1R potency, cAMP accumulation in CHO-K1 cells stably overexpressing hGLP1R; assay type: cell-based; set-up: host or cells: CHO-K1; details: for EC50: cAMP accumulation; for SCTR EC50/GLP1R EC50 ratio: cAMP accumulation in CHO-K1 cells; for Selectivity: SCTR EC50/GLP1R EC50 ratio
# Sequence of GLP1R (P43220 24-463): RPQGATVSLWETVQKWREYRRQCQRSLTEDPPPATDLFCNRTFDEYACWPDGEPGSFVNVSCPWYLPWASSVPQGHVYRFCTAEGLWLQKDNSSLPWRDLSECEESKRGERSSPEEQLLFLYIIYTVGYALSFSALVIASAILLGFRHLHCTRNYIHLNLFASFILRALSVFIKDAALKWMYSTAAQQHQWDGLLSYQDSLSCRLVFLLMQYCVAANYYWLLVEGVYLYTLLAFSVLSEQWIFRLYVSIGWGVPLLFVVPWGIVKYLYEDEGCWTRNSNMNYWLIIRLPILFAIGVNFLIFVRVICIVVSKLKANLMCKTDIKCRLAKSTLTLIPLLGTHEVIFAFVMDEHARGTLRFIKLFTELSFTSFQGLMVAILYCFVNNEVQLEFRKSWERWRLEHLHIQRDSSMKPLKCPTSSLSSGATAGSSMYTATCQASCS
# In short: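 Cells were plated in DPBS with 0.05% casein and 0.5 mM IBMX, then stimulated for 30 min at room temperature with test compound. cAMP was read by TR-FRET after one hour. EC50 came from variable-slope sigmoid nonlinear regression; purified peptides ran as 11-point 3-fold series, n=2.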
# [2] = Turbidity of crude library peptides (absorbance at 600 nm); assay type: physicochemical; details: Physical stability of peptides
# In short: as §1
# SCTR = SCTR (Homo sapiens, UniProt P47872); assay: hSCTR potency, cAMP accumulation in CHO-K1 cells stably overexpressing hSCTR; assay type: cell-based; set-up: alternatively Euroscreen ES-712-AF; FAST-0161L; host or cells: CHO-K1; details: cAMP accumulation
# Sequence of SCTR (P47872 23-440): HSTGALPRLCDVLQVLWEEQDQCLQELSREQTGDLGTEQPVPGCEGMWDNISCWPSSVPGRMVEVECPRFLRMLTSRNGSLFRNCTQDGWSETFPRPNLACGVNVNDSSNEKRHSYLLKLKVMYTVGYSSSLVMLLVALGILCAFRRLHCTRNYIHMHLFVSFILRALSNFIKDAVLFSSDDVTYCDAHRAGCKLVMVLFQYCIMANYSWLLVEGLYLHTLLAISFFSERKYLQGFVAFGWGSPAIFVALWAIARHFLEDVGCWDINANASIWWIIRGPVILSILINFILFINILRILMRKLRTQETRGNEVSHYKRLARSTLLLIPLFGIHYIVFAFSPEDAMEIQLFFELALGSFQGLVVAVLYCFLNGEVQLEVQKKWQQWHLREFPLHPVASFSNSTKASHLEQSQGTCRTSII
# In short: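 Division-arrested CHO-K1 cells stably expressing hSCTR were plated in DPBS with 0.05% casein and 0.5 mM IBMX, then stimulated with test peptide for 30 min at room temperature. cAMP was read by HTRF after one hour. EC50 came from variable-slope sigmoidal nonlinear regression.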
# [3] = CHO-K1 cells overexpressing hGLP1R, read-out: hGLP1R pEC50 (converted)
# [4] = selectivity for hGLP1R over hSCTR
# [5] = CHO-K1 cells overexpressing hSCTR, read-out: hSCTR pEC50 (converted)
# [6] = CHO-K1 cells overexpressing hGLP1R, read-out: pEC50 hGLPR1 (converted)
# [7] = CHO-K1 cells overexpressing hSCTR, read-out: pEC50 hSCTR (converted)
Fibril formation [1],EC50 (GLP1R; [3]),SCTR EC50/GLP1R EC50 ratio (GLP1R; [4]),Turbidity (pH 7) [2],EC50 (SCTR; [5]),Selectivity (GLP1R),EC50 (GLP1R; [6]),EC50 (SCTR; [7]),"EC50 (GLP1R; CHO-K1 cells stably overexpressing hGLP1R, read-out: hGLP1R potency (pEC50) (converted))","SCTR EC50/GLP1R EC50 ratio (GLP1R; selectivity ratio, hSCTR vs hGLP1R)","EC50 (SCTR; CHO-K1 cells stably overexpressing hSCTR, read-out: hSCTR potency (pEC50) (converted))",Compound
2942,0.0158 nM,1279,0.08,20 nM,,,,,,,CC[C@H](C)[C@H](NC(=O)[C@H](CO)NC(=O)[C@@H](NC(=O)[C@H](CC(=O)O)NC(=O)[C@H](CO)NC(=O)[C@@H](NC(=O)[C@H](Cc1ccccc1)NC(=O)[C@@H](NC(=O)CNC(=O)[C@H](CCC(=O)O)NC(=O)C(C)(C)NC(=O)[C@@H](N)Cc1c[nH]cn1)[C@@H](C)O)[C@@H](C)O)C(C)C)C(=O)N[C@@H](CC(C)C)C(=O)N[C@@H](CCCCNC(=O)COCCOCCNC(=O)COCCOCCNC(=O)CC[C@H](NC(=O)CCCCCCCCCCCCCCCCCCC(=O)O)C(=O)O)C(=O)N[C@@H](CCC(=O)O)C(=O)N[C@@H](CCC(=O)O)C(=O)N[C@@H](C)C(=O)NC(C)(C)C(=O)N[C@@H](CC(C)C)C(=O)N[C@@H](CCC(N)=O)C(=O)N[C@@H](CCCNC(=N)N)C(=O)N[C@@H](Cc1ccccc1)C(=O)N[C@@H](CC(C)C)C(=O)N[C@@H](CCC(=O)O)C(=O)N[C@@H](Cc1c[nH]cn1)C(=O)N[C@@H](CC(C)C)C(=O)N[C@H](C(N)=O)C(C)C [compound 172] (H-H[Aib]EGTFTSDVSILK([AEEA-AEEA-γGlu-C20 diacid])EEA[Aib]LQRFLEHLV-NH2)
6899,,,0.08,,22387,0.0126 nM,251 nM,,,,CC(C)C[C@H](NC(=O)[C@H](Cc1ccccc1)NC(=O)[C@H](CCCNC(=N)N)NC(=O)[C@H](CCC(N)=O)NC(=O)[C@@H](NC(=O)[C@H](C)NC(=O)[C@H](C)NC(=O)[C@H](CCC(=O)O)NC(=O)[C@H](CCC(=O)O)NC(=O)[C@H](CCCCNC(=O)COCCOCCNC(=O)COCCOCCNC(=O)CC[C@H](NC(=O)CCCCCCCCCCCCCCCCCCC(=O)O)C(=O)O)NC(=O)[C@H](CC(C)C)NC(=O)[C@H](Cc1ccc(O)cc1)NC(=O)[C@H](CO)NC(=O)[C@@H](NC(=O)[C@H](CC(=O)O)NC(=O)[C@H](CO)NC(=O)[C@@H](NC(=O)[C@H](Cc1ccccc1)NC(=O)[C@@H](NC(=O)CNC(=O)[C@H](CCC(=O)O)NC(=O)C(C)(C)NC(=O)[C@@H](N)Cc1c[nH]cn1)[C@@H](C)O)[C@@H](C)O)C(C)C)[C@@H](C)O)C(=O)N[C@@H](CCC(=O)O)C(=O)N[C@@H](Cc1c[nH]cn1)C(=O)N[C@@H](CC(C)C)C(=O)N[C@H](C(N)=O)C(C)C [compound 30] (H-H[Aib]EGTFTSDVSYLK([AEEA-AEEA-γGlu-C20 diacid])EEAATQRFLEHLV-NH2)
96622,,,0.08,,9251,0.1 nM,1000 nM,,,,CC(C)C[C@H](NC(=O)[C@H](Cc1ccccc1)NC(=O)[C@H](CCCNC(=N)N)NC(=O)[C@H](CCC(N)=O)NC(=O)[C@H](CCC(=O)O)NC(=O)[C@H](C)NC(=O)[C@H](C)NC(=O)[C@H](Cc1ccccc1)NC(=O)[C@H](CCC(=O)O)NC(=O)[C@H](CCCCNC(=O)COCCOCCNC(=O)COCCOCCNC(=O)CC[C@H](NC(=O)CCCCCCCCCCCCCCCCCCC(=O)O)C(=O)O)NC(=O)[C@H](CC(C)C)NC(=O)[C@H](CCCNC(=N)N)NC(=O)[C@H](CO)NC(=O)[C@@H](NC(=O)[C@H](CC(=O)O)NC(=O)[C@H](CO)NC(=O)[C@@H](NC(=O)[C@H](Cc1ccccc1)NC(=O)[C@@H](NC(=O)CNC(=O)[C@H](CCC(=O)O)NC(=O)C(C)(C)NC(=O)[C@@H](N)Cc1c[nH]cn1)[C@@H](C)O)[C@@H](C)O)C(C)C)C(=O)N[C@@H](CCC(=O)O)C(=O)N[C@@H](Cc1c[nH]cn1)C(=O)N[C@@H](CC(C)C)C(=O)N[C@H](C(N)=O)C(C)C [compound 72] (H-H[Aib]EGTFTSDVSRLK([AEEA-AEEA-γGlu-C20 diacid])EFAAEQRFLEHLV-NH2)
94029,,,0.37,,,,,0.0158 nM,10195,158 nM,CC[C@H](C)[C@H](NC(=O)[C@H](Cc1ccccc1)NC(=O)[C@H](CCCNC(=N)N)NC(=O)[C@H](CCC(N)=O)NC(=O)[C@H](CC(C)C)NC(=O)[C@H](C)NC(=O)[C@H](C)NC(=O)CNC(=O)[C@H](CCC(=O)O)NC(=O)[C@H](CC(C)C)NC(=O)[C@H](CC(C)C)NC(=O)[C@H](Cc1ccc(O)cc1)NC(=O)[C@H](CO)NC(=O)[C@H](Cc1c[nH]c2ccccc12)NC(=O)[C@H](CC(=O)O)NC(=O)[C@H](CO)NC(=O)[C@@H](NC(=O)[C@H](Cc1ccccc1)NC(=O)[C@@H](NC(=O)CNC(=O)[C@H](CCC(=O)O)NC(=O)C(C)(C)NC(=O)[C@@H](N)Cc1c[nH]cn1)[C@@H](C)O)[C@@H](C)O)C(=O)N[C@@H](CCC(N)=O)C(=O)N[C@@H](Cc1c[nH]c2ccccc12)C(=O)N[C@@H](CC(C)C)C(=O)N[C@H](C(N)=O)C(C)C [compound 189] (H-H[Aib]EGTFTSDWSYLLEGAALQRFIQWLV-NH2)
3233,0.00398 nM,59910,0.08,251 nM,,,,,,,CC(C)C[C@H](NC(=O)[C@H](Cc1ccc(O)cc1)NC(=O)[C@H](CCCNC(=N)N)NC(=O)[C@H](CCC(N)=O)NC(=O)[C@H](CC(C)C)NC(=O)C(C)(C)NC(=O)[C@H](C)NC(=O)[C@H](CCC(=O)O)NC(=O)[C@H](CCC(=O)O)NC(=O)[C@H](CCCCNC(=O)COCCOCCNC(=O)COCCOCCNC(=O)CC[C@H](NC(=O)CCCCCCCCCCCCCCCCCCC(=O)O)C(=O)O)NC(=O)[C@H](CC(C)C)NC(=O)[C@H](Cc1ccc(O)cc1)NC(=O)[C@H](CO)NC(=O)[C@@H](NC(=O)[C@H](CC(=O)O)NC(=O)[C@H](CO)NC(=O)[C@@H](NC(=O)[C@H](Cc1ccccc1)NC(=O)[C@@H](NC(=O)CNC(=O)[C@H](CCC(=O)O)NC(=O)C(C)(C)NC(=O)[C@@H](N)Cc1c[nH]cn1)[C@@H](C)O)[C@@H](C)O)C(C)C)C(=O)N[C@@H](CCC(=O)O)C(=O)N[C@@H](Cc1c[nH]cn1)C(=O)N[C@@H](CC(C)C)C(=O)N[C@H](C(N)=O)C(C)C [compound 141] (H-H[Aib]EGTFTSDVSYLK([AEEA-AEEA-γGlu-C20 diacid])EEA[Aib]LQRYLEHLV-NH2)
109124,,,0.08,,16199,0.00794 nM,126 nM,,,,CC(C)C[C@H](NC(=O)[C@H](Cc1ccccc1)NC(=O)[C@H](CCCNC(=N)N)NC(=O)[C@H](CCC(N)=O)NC(=O)[C@H](CCC(N)=O)NC(=O)[C@H](C)NC(=O)[C@H](C)NC(=O)[C@@H](NC(=O)[C@H](CCC(=O)O)NC(=O)[C@H](CCCCNC(=O)COCCOCCNC(=O)COCCOCCNC(=O)CC[C@H](NC(=O)CCCCCCCCCCCCCCCCCCC(=O)O)C(=O)O)NC(=O)[C@H](CC(C)C)NC(=O)[C@@H](NC(=O)[C@H](CO)NC(=O)[C@@H](NC(=O)[C@H](CC(=O)O)NC(=O)[C@H](CO)NC(=O)[C@@H](NC(=O)[C@H](Cc1ccccc1)NC(=O)[C@@H](NC(=O)CNC(=O)[C@H](CCC(=O)O)NC(=O)C(C)(C)NC(=O)[C@@H](N)Cc1c[nH]cn1)[C@@H](C)O)[C@@H](C)O)C(C)C)C(C)C)[C@@H](C)O)C(=O)N[C@@H](CCC(=O)O)C(=O)N[C@@H](Cc1c[nH]cn1)C(=O)N[C@@H](CC(C)C)C(=O)N[C@H](C(N)=O)C(C)C [compound 41] (H-H[Aib]EGTFTSDVSVLK([AEEA-AEEA-γGlu-C20 diacid])ETAAQQRFLEHLV-NH2)
